# In ChEMBL document CHEMBL1158820, “Avrainvilloside, a 6-deoxy-6-aminoglucoglycerolipid from the green alga Avrainvillea nigricans” (J Nat Prod, 2005):
# System: WEHI-164
# Assay: Cytotoxicity against mouse WEHI164 cells
# Format: functional, cell-based
smiles,measurement,value
CCCCCCCCCCCCCCCCCC(=O)OC[C@H](CO[C@H]1O[C@H](CN)[C@@H](O)[C@H](O)[C@H]1O)OC(=O)CCCCCCCCCCCCCCCCC [AVRAINVILLOSIDE],IC50,> 10 µg/mL
